This note sets out measurements from ChEMBL document CHEMBL1201862, “PubChem BioAssay data set” (2004).

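These data come from cells grown in 96-well plates and exposed to compound for 48 hours at five concentrations. GI50 marks 50% less growth.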 Activity calls are given as the source filed them. Rule as the data show it: active = GI50 up to about 1.1 µM and inactive = higher. A value given as a limit tells only on which side of the number the result lay.

Among the test systems are A549; CAKI-1; EKVX; HCC 2998; HCT-15; HOP-62; KM-20L2; KM12; MDA-MB-435; MDA-N; Malme-3M; NCI-H226; SF-295; SK-MEL-28; SK-MEL-5; SK-OV-3; SN12C; SNB-19; TK-10; UO-31.
Holding throughout (assay): NCI anticancer screen, dose series, 48 h

Turning to `COc1ccc(NC(=O)CC(=O)n2nc(-c3ccccc3)c(/N=N/c3ccc(C)cc3)c2-c2ccccc2)cc1`, the GI50 is 44 µM (inactive) in the experiment with A549; 55.3 µM (inactive) with CAKI-1; 21.8 µM (inactive) in the experiment on EKVX; 62.8 µM (inactive) in the experiment on HCC 2998; more than 100 µM with HCT-15; 10.4 µM (inactive) in the experiment with HOP-62. In addition, the GI50 was > 78.2 µM (inactive) with KM-20L2; 65.6 µM (inactive) in the experiment with KM12; > 100 µM (inactive) in the experiment on MDA-MB-435; > 100 µM (inactive) in the experiment on MDA-N; 31.5 µM (inactive) in the experiment on Malme-3M; 21.7 µM (inactive) with NCI-H226. Moreover, the GI50 in the experiment with SF-295 was 23.8 µM (inactive); in the experiment with SK-MEL-28, > 91.6 µM (inactive); in the experiment with SK-MEL-5 it was > 65.2 µM (inactive); with SK-OV-3, 16.4 µM (inactive); in the experiment on SN12C, 38 µM (inactive); in the experiment with SNB-19, 21.5 µM (inactive). Moreover, the GI50 with TK-10 is 36.2 µM (inactive); with UO-31, 29.3 µM (inactive).

`O=S(=O)(c1ccccc1)C1CN(Cc2ccccc2)CCN(Cc2ccccc2)C1`: the GI50 is 39.7 µM (inactive) in the experiment with A549; 24.4 µM (inactive) in the experiment on CAKI-1; 36.7 µM (inactive) in the experiment with EKVX; > 78 µM (inactive) in the experiment with HCC 2998; 25 µM in the experiment with HCT-15; > 76.2 µM (inactive) in the experiment with HOP-62. Also, the GI50 in the experiment with KM-20L2 is 35.2 µM (inactive); in the experiment with KM12 it was 58.3 µM (inactive); with MDA-MB-435, 20.9 µM (inactive); in the experiment on MDA-N it was 6.46 µM (inactive); with Malme-3M, 25.5 µM (inactive); in the experiment on NCI-H226, > 53.6 µM (inactive). For the same compound, the GI50 in the experiment with SF-295 was 73.8 µM (inactive); in the experiment on SK-MEL-28, > 71 µM (inactive); with SK-MEL-5, 18.6 µM (inactive); in the experiment on SK-OV-3, > 71.6 µM (inactive); in the experiment on SN12C, 32.4 µM (inactive); in the experiment on SNB-19, > 60.4 µM (inactive). Further, the GI50 in the experiment with TK-10 is 63.4 µM (inactive); with UO-31, 19.3 µM (inactive).

Turning to `COC1C(O)C(C)OC(OC2C(Oc3cccc4c(O)c5c(=O)oc6ccc(C)c7c(=O)oc(c34)c5c67)OC(C)C(O)C2O)C1O` (configuration not stated), the GI50 was 6.14 µM (inactive) with A549; 1.34 µM (inactive) in the experiment with EKVX; 2.16 µM (inactive) in the experiment on HCC 2998; 3.03 µM in the experiment on HCT-15; 1.77 µM (inactive) in the experiment with HOP-62; 2.52 µM (inactive) in the experiment on KM-20L2. The GI50 was 1.64 µM (inactive) in the experiment on KM12; 2.07 µM (inactive) in the experiment on MDA-MB-435; 2.01 µM (inactive) with MDA-N; 1.35 µM (inactive) in the experiment with Malme-3M; 1.35 µM (inactive) with NCI-H226; 1.29 µM (inactive) in the experiment with SF-295. Moreover, the GI50 with SK-MEL-28 was 1.6 µM (inactive); in the experiment with SK-MEL-5, 1.59 µM (inactive); in the experiment with SK-OV-3, 4.37 µM (inactive); with SN12C it was 2.52 µM (inactive); in the experiment with TK-10 it was 3.1 µM (inactive); in the experiment with UO-31, 4.59 µM (inactive).

`NC(CSC(c1ccccc1)(c1ccccc1)c1ccccc1)C(=O)O` (configuration not stated): the GI50 with A549 is 0.822 µM (active); in the experiment with CAKI-1 it was 4.41 µM (inactive); in the experiment on EKVX it was 1.19 µM (inactive); with HCC 2998, 0.716 µM (active); in the experiment with HCT-15, 0.925 µM; with HOP-62, 1.43 µM (inactive). The GI50 in the experiment with KM-20L2 was 1.82 µM (inactive); in the experiment with KM12, 0.962 µM (active); with MDA-MB-435, 0.333 µM (active); in the experiment with MDA-N it was 1.08 µM (active); in the experiment on Malme-3M, 2.17 µM (inactive); with NCI-H226, 3.59 µM (inactive). Also, the GI50 is 10 µM (inactive) in the experiment with SK-MEL-28; 0.69 µM (active) with SK-MEL-5; 0.634 µM (active) in the experiment on SK-OV-3; 1.27 µM (inactive) with SN12C; 1.22 µM (inactive) with SNB-19; 19.9 µM (inactive) in the experiment with TK-10. For the same compound, the GI50 with UO-31 is 18.5 µM (inactive).
